The values that follow come from US20250059172A1, “INDAZOLE COMPOUND AND PHARMACEUTICAL” (NIPPON SHINYAKU CO., LTD., priority 2021, published 2025).

Molecules are shown by their SMILES.

The test system of one experiment is human A549 cells. As to the kind of experiment: Inhibition test of PGE2 production using human A549 cells. It counts as cell-based. To be noted: IL-1β stimulated A549 cells, 24 h, PGE2 by HTRF, read-out: A549 cell inhibition of PGE2 production IC50. In a few lines:
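PGE2 (HTRF) and PGF2a (EIA) were quantified in medium after 24 h, 37°C IL-1β stimulation (5 ng/well) of human A549 cells that had received test compound 60 min beforehand (0.1% DMSO, 3% FBS RPMI). IC50 relative to the window between IL-1β-stimulated and unstimulated controls.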
Background: Time-resolved FRET reads energy transfer from a long-lived donor to a nearby acceptor.

For another experiment, the target named is human mPGES-1 (Homo sapiens (Human), UniProt O14684). The experiment is described as follows: mPGES-1 inhibitory activity test. It is filed as biochemical. To be noted: for inhibition at 0.01 µM: 10 nM test compound; for inhibition at 0.1 µM: 100 nM test compound. In a few lines: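 PGE2 formation was quantified by HTRF and reported as percent inhibition at 10 and 100 nM compound or as IC50. The 60-second reaction at 4° C used 1 μM PGH2, after a 20-minute 4° C preincubation of compound (1% DMSO final) with glutathione-supplemented (2.5 mM, pH 7.4) microsomes. The microsomes were from transiently transfected CHO-K1 cells expressing human mPGES-1.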
Chain of human mPGES-1 (O14684 whole entry): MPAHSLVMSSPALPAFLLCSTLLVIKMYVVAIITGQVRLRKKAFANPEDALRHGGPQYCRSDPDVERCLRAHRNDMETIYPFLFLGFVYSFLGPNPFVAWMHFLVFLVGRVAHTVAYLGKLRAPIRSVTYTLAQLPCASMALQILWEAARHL

Take `O=C(Nc1cccc2c1cnn2-c1ccc(OC(F)(F)F)cc1)c1cc(CNC(=O)C2CCCC2)ccc1Cl` [Example 115, 2-Chloro-5-{[(cyclopentylcarbonyl)amino]methyl}-N-{1-[4-(trifluoromethoxy)phenyl]-1H-indazol-4-yl}benzamide]: the concentration for half-maximal inhibition (IC50) in the experiment on human A549 cells worked out at 1.2 nM. The molecule further returned an inhibition at 0.01 µM against human mPGES-1 of 61%.
As for `O=C(Nc1cccc2c1cnn2-c1ccc(OC(F)(F)F)cc1)c1cc(CNC(=O)C2(C(F)(F)F)CC2)ccc1Cl` [Example 116, 2-Chloro-N-{1-[4-(trifluoromethoxy)phenyl]-1H-indazol-4-yl}-5-[({[1-(trifluoromethyl)cyclopropyl]carbonyl}amino)methyl]benzamide], the IC50 in the experiment on human A549 cells came to 0.6 nM. Further, on human mPGES-1, the inhibition at 0.01 µM stood at 68% and at 0.1 µM the inhibition was 100%.
On to `CC(C)(C)CC(=O)NCc1ccc(Cl)c(C(=O)Nc2cccc3c2cnn3-c2cccc(OC(F)(F)F)c2)c1` [Example 121, 2-Chloro-5-{[(3,3-dimethylbutanoyl)amino]methyl}-N-{1-[3-(trifluoromethoxy)phenyl]-1H-indazol-4-yl}benzamide], for which, in the experiment on human A549 cells, the IC50 was determined as 10 nM. Besides, the inhibition at 0.01 µM against human mPGES-1 came out at 48%.
On the same counts, the results for `O=C(Nc1cccc2c1cnn2-c1cccc(OC(F)(F)F)c1)c1cc(CNC(=O)C2CCCC2)ccc1Cl` [Example 122, 2-Chloro-5-{[(cyclopentylcarbonyl)amino]methyl}-N-{1-[3-(trifluoromethoxy)phenyl]-1H-indazol-4-yl}benzamide] are 2.9 nM and 100%.
On the same counts, the results for `O=C(Nc1cccc2c1cnn2-c1cccc(OC(F)(F)F)c1)c1cc(CNC(=O)C2(C(F)(F)F)CC2)ccc1Cl` [Example 123, 2-Chloro-N-{1-[3-(trifluoromethoxy)phenyl]-1H-indazol-4-yl}-5-[({[1-(trifluoromethyl)cyclopropyl]carbonyl}amino)methyl]benzamide] are 5.1 nM and 98%.
On the same counts, the results for `O=C(Nc1cccc2c1cnn2-c1cccc(OC(F)(F)F)c1)c1cc(CNS(=O)(=O)C2CC2)ccc1Cl` [Example 126, 2-Chloro-5-{[(cyclopropylsulfonyl)amino]methyl}-N-{1-[3-(trifluoromethoxy)phenyl]-1H-indazol-4-yl}benzamide] are 9.8 nM and 100%.
Consider `Cc1ccc(-n2ncc3c(NC(=O)c4cc(CNC(=O)CC(C)(C)C)ccc4Cl)cccc32)cc1Cl` [Example 127, 2-Chloro-N-[1-(3-chloro-4-methylphenyl)-1H-indazol-4-yl]-5-{[(3,3-dimethylbutanoyl)amino]methyl}benzamide], for which the IC50 with human A549 cells amounted to 4.7 nM. On human mPGES-1, this molecule gave an inhibition at 0.01 µM of 64%.
For `Cc1ccc(-n2ncc3c(NC(=O)c4cc(CNC(=O)C5(C(F)(F)F)CC5)ccc4Cl)cccc32)cc1Cl` [Example 129, 2-Chloro-N-[1-(3-chloro-4-methylphenyl)-1H-indazol-4-yl]-5-[({[1-(trifluoromethyl)cyclopropyl]carbonyl}amino)methyl]benzamide] the same measures were 1.2 nM and 67%.
On the same counts, the results for `Cc1ccc(-n2ncc3c(NC(=O)c4cc(CNS(=O)(=O)C5CC5)ccc4Cl)cccc32)cc1Cl` [Example 132, 2-Chloro-N-[1-(3-chloro-4-methylphenyl)-1H-indazol-4-yl]-5-{[(cyclopropylsulfonyl)amino]methyl}benzamide] are 1.5 nM and 86%.
Turning to `CC(C)(C)CC(=O)NCc1ccc(Cl)c(C(=O)Nc2cccc3c2cnn3-c2cccc(OC(F)F)c2)c1` [Example 138, 2-Chloro-N-{1-[3-(difluoromethoxy)phenyl]-1H-indazol-4-yl}-5-{[(3,3-dimethylbutanoyl)amino]methyl}benzamide], the IC50 with human A549 cells stood at 6 nM. At human mPGES-1, this molecule displayed an inhibition at 0.01 µM of 61% and an inhibition at 0.1 µM of 100%.
On the same counts, the results for `O=C(Nc1cccc2c1cnn2-c1cccc(OC(F)F)c1)c1cc(CNC(=O)C2(O)CC2)ccc1Cl` [Example 141, 2-Chloro-N-{1-[3-(difluoromethoxy)phenyl]-1H-indazol-4-yl}-5-({[(1-hydroxycyclopropyl)carbonyl]amino}methyl)benzamide] are 59.4 nM, 54% and 100%.
`CC(C)(CO)C(=O)NCc1ccc(Cl)c(C(=O)Nc2cccc3c2cnn3-c2cccc(OC(F)F)c2)c1` [Example 143, 2-Chloro-N-{1-[3-(difluoromethoxy)phenyl]-1H-indazol-4-yl}-5-{[(3-hydroxy-2,2-dimethylpropanoyl)amino]methyl}benzamide]: in the experiment with human A549 cells, the concentration for half-maximal inhibition (IC50) worked out at 17.4 nM. On human mPGES-1, this molecule came in with an inhibition at 0.01 µM of 92% and an inhibition at 0.1 µM of 100%.
On the same counts, the results for `O=C(Nc1cccc2c1cnn2-c1cccc(OC(F)F)c1)c1cc(CNS(=O)(=O)C2CC2)ccc1Cl` [Example 144, 2-Chloro-5-{[(cyclopropylsulfonyl)amino]methyl}-N-{1-[3-(difluoromethoxy)phenyl]-1H-indazol-4-yl}benzamide] are 1.8 nM, 73% and 100%.
Consider `CC(C)(C)CC(=O)NCc1ccc(Cl)c(C(=O)Nc2cccc3c2cnn3-c2ccc(Cl)cc2)c1` [Example 145, 2-Chloro-N-[1-(4-chlorophenyl)-1H-indazol-4-yl]-5-([(3,3-dimethylbutanoyl)amino]methyl)benzamide], for which, in the experiment with human A549 cells, the concentration for half-maximal inhibition (IC50) came to 6.3 nM. On human mPGES-1, this molecule registered an inhibition at 0.01 µM of 92%.
On the same counts, the results for `O=C(Nc1cccc2c1cnn2-c1ccc(Cl)cc1)c1cc(CNC(=O)C2(C(F)(F)F)CC2)ccc1Cl` [Example 147, 2-Chloro-N-[1-(4-chlorophenyl)-1H-indazol-4-yl]-5-[({[1-(trifluoromethyl)cyclopropyl]carbonyl}amino)methyl]benzamide] are 0.9 nM and 85%.
For the molecule `COCC(=O)NCc1ccc(Cl)c(C(=O)Nc2cccc3c2cnn3-c2ccc(Cl)cc2)c1` [Example 148, 2-Chloro-N-[1-(4-chlorophenyl)-1H-indazol-4-yl]-5-([(methoxyacetyl)amino]methyl)benzamide], the IC50 with human A549 cells turned out to be 4.2 nM. On human mPGES-1, this molecule returned an inhibition at 0.01 µM of 70% and an inhibition at 0.1 µM of 100%.
As to `CC(C)(CO)C(=O)NCc1ccc(Cl)c(C(=O)Nc2cccc3c2cnn3-c2ccc(Cl)cc2)c1` [Example 149, 2-Chloro-N-[1-(4-chlorophenyl)-1H-indazol-4-yl]-5-{[(3-hydroxy-2,2-dimethylpropanoyl)amino]methyl}benzamide], the concentration for half-maximal inhibition (IC50) with human A549 cells is 3.2 nM. Also, on human mPGES-1, the inhibition at 0.01 µM came out at 94%.
On the same counts, the results for `O=C(Nc1cccc2c1cnn2-c1ccc(Cl)cc1)c1cc(CNS(=O)(=O)C2CC2)ccc1Cl` [Example 150, 2-Chloro-N-[1-(4-chlorophenyl)-1H-indazol-4-yl]-5-([(cyclopropylsulfonyl)amino]methyl)benzamide] are 5.9 nM and 72%.
For `CC(C)(C)CC(=O)NCc1ccc(Cl)c(C(=O)Nc2cccc3c2cnn3-c2ccc(F)cc2)c1` [Example 151, 2-Chloro-5-{[(3,3-dimethylbutanoyl)amino]methyl}-N-[1-(4-fluorophenyl)-1H-indazol-4-yl]benzamide] the same measures were 14.3 nM and 100%.
For `O=C(Nc1cccc2c1cnn2-c1ccc(F)cc1)c1cc(CNC(=O)C2CCCC2)ccc1Cl` [Example 152, 2-Chloro-5-{[(cyclopentylcarbonyl)amino]methyl}-N-[1-(4-fluorophenyl)-1H-indazol-4-yl]benzamide] the same measures were 7.6 nM and 58%.
For the molecule `O=C(Nc1cccc2c1cnn2-c1ccc(F)cc1)c1cc(CNC(=O)C2(C(F)(F)F)CC2)ccc1Cl` [Example 153, 2-Chloro-N-[1-(4-fluorophenyl)-1H-indazol-4-yl]-5-[({[1-(trifluoromethyl)cyclopropyl]carbonyl}amino)methyl]benzamide], the 50% inhibitory concentration (IC50) with human A549 cells was 1 nM. This molecule also gave an inhibition at 0.01 µM on human mPGES-1 of 100%.
As to `O=C(Nc1cccc2c1cnn2-c1ccc(F)cc1)c1cc(CNC(=O)C2(O)CC2)ccc1Cl` [Example 154, 2-Chloro-N-[1-(4-fluorophenyl)-1H-indazol-4-yl]-5-({[(1-hydroxycyclopropyl)carbonyl]amino}methyl)benzamide], the IC50 in the experiment with human A549 cells turned out to be 17.6 nM. On human mPGES-1, the inhibition at 0.01 µM was 58% and the inhibition at 0.1 µM came to 89%.
Consider `COCC(=O)NCc1ccc(Cl)c(C(=O)Nc2cccc3c2cnn3-c2ccc(F)cc2)c1` [Example 155, 2-Chloro-N-[1-(4-fluorophenyl)-1H-indazol-4-yl]-5-([(methoxyacetyl)amino]methyl)benzamide], for which, in the experiment with human A549 cells, the IC50 turned out to be 5.9 nM. On human mPGES-1, this molecule showed an inhibition at 0.01 µM of 100%.
Regarding `CC(C)(CO)C(=O)NCc1ccc(Cl)c(C(=O)Nc2cccc3c2cnn3-c2ccc(F)cc2)c1` [Example 156, 2-Chloro-N-[1-(4-fluorophenyl)-1H-indazol-4-yl]-5-([(3-hydroxy-2,2-dimethylpropanoyl)amino]methyl)benzamide], the IC50 in the experiment on human A549 cells worked out at 7.1 nM. On human mPGES-1, this molecule had an inhibition at 0.01 µM of 63% and an inhibition at 0.1 µM of 86%.
`O=C(Nc1cccc2c1cnn2-c1ccc(F)cc1)c1cc(CNS(=O)(=O)C2CC2)ccc1Cl` [Example 157, 2-Chloro-5-{[(cyclopropylsulfonyl)amino]methyl}-N-[1-(4-fluorophenyl)-1H-indazol-4-yl]benzamide]: the IC50 in the experiment on human A549 cells turned out to be 14.6 nM. Further, the inhibition at 0.01 µM against human mPGES-1 came to 100%.

For orientation: IC50 means the concentration at which inhibition is half-maximal. A word on the inhibition: it is the change of the read-out against control, counted positive when it falls. A higher inhibition goes with a strong effect.
